These results are taken from PMC5656594 (Scientific Reports, 2017).

Structures are written as SMILES.

One assay deals with IN. To be noted: INSTIs; cited from earlier work.
Assay [1] deals with T1, IN^PFV-DNA complexes (DNA#1, DNA#6, DNA#7) (Human spumaretrovirus, UniProt P14350).
T1 construct: The full-length wt IN^PFV, the three single mutants of the catalytic triad; His; made in house; host or cells: E. coli BL21-CodonPlus (DE3)-RIPL
Nature of the assay: Inhibition of ST activity by DTG using DNA#1, DNA#6 or DNA#7 substrates. It counts as biochemical, prototype foamy virus (PFV). The conditions noted are these: 100 nM DTG, 300 nM IN. The source says:
The results in Table 1 cannot discriminate between a direct sequence effect on DTG-binding from an indirect effect via a possible defect in the IN-DNA interaction. The binding of IN to various DNA sequences (DNA#1 #8 #9 and #13) was similar, as measured by fluorescence anisotropy using fluorescein-labeled DNAs (Supplementary Fig. S5A). […] The X-ray structure of the IN^PFV-DNA complex highlights specific contacts (about 9) between amino acids and the bases of the two strands (i.e. reactive and non-transferred DNA strands), up to the 10th position from the reactive strand 3′-end[26]. In particular, there is a specific contact involving a guanine of the non-transferred strand at pos. 10 and the N69 residue. […] To note, based on X-ray structures of ternary RAL/or DTG-IN-DNA complexes[26],[29] in which the INSTI has direct contacts with several bases at pos.
Figure S5. Comparison of the binary INPFV-DNA complex formation using various DNA sequences. (A) The binding of INPFV to various DNA sequences was studied by steady-state […]
concentrations of IN and DNA were mixed in the presence of 1mM Mg2+ and the r parameter was monitored. A constant concentration of Fl-DNA (0.3 µM) was maintained throughout the titration. The percentage of binary complexes as a function of (IN+DNA) was calculated using: %=(r–r0)/(rmax–r0) x100 where r0 and rmax correspond to anisotropy values of free DNA and IN-bound DNA, respectively.
(B) ST activity of IN (200 or
300 nM) after 4h incubation at 37°C using radiolabeled DNA#1, #6 or #7. Results are expressed as percentage of the activity corresponding to: DNA#1 + 300 nM IN. (C) Inhibition of the ST activity by […]
IN concentration was 300 nM. For each substrate,
The bar graphs in panels B-
(also on this page, place not known: PFV-DNA steady -state IN Strand transfer activity (% of ST with and 300 nM IN) strand transfer (% of untreated) Binary IN-DNA complexes (%) DNA#1)

The next assay has as its target T2, E221A IN^PFV-DNA complex (Human spumaretrovirus, UniProt P14350, E972A/G968S/S969G).
T2 construct: The pET-IN-PFV plasmid containing the full-length IN gene was used for mutagenesis; His; made in house; host or cells: E. coli BL21-CodonPlus (DE3)-RIPL
Put plainly: Fluorescence enhancement DTG-binding assay, E221A catalytic mutant. The arrangement: species or system prototype foamy virus (PFV). To be noted: 1 mM Mg2+. As for the experimental part: (§1) The fluorescence intensity was monitored as a function of (IN + DNA) and plotted as a function of the binary IN-DNA complex concentration (measured as explained in Fig. 2E legend). […] (B) The percentage of ternary complexes was calculated using DTG fluorescence enhancement. […] The graphs in panels A-B show representative data of three independent experiments. […] "DTG" is taken from the y-axis title of the same panel.
(§2) To note, Mg^2+ is dispensable for the overall DNA-binding step of IN[32],[43]–[45] and thus, the loss of Mg^2+ chelation is not contradictory with results showing that catalytic mutants bind equally well to DNA and in a similar manner than wt IN (Supplementary Fig. S6). However, G187R cannot be considered as a catalytic mutant since it sustains a significant ST activity although weak (≈10% of the wt activity; Fig. 6).
(§3) Fluorescence excitation and emission spectra of INSTIs were recorded on a Eclipse (Varian) spectrofluorimeter equipped with two polarizers for anisotropy measurements and a thermostated cell holder, using 80 µl solutions placed in micro cells (Hellma). […] The steady-state fluorescence anisotropy was calculated using: r = (IVV–G x IVH)/(IVV + 2GxIVH) where IVV and IVH correspond to vertical and horizontal components, respectively, when the sample is excited with vertically polarized light. […]

Assay [2] concerns the target T3, IN^PFV-viral DNA interaction (Human spumaretrovirus, UniProt P14350).
T3 construct: The full-length wt IN^PFV, the three single mutants of the catalytic triad; His; made in house; host or cells: E. coli BL21-CodonPlus (DE3)-RIPL
Put plainly: IN-viral DNA interaction by steady-state fluorescence anisotropy of Fl-DNA with increasing drug concentrations. The conditions noted are these: 400 nM IN^PFV, 4 nM Fl-PFV^CAAT, 10 mM Mg2+, up to 20 µM drug; means INSTI did not prevent IN-DNA interactions. Format: binding, prototype foamy virus (PFV). The protocol:
Their incapability to prevent or disrupt IN-viral DNA complexes was consistently observed over the whole concentration range, regardless of the INSTI tested (Supplementary Fig. S7).
IN^PFV binding to DNA was measured by fluorescence anisotropy on a Beacon Instrument (Panvera, Madison, WI, USA) as previously described[25],[51], using a double-stranded 21-mer Fl-labeled DNA mimicking the PFV U5 LTR end also referred to as DNA#1 in Table 1 (labeled at the 5′-end of the reactive strand). IN binding to Fl-PFV^CAAT (or Fl-DNA#1) was compared to the binding to other DNA sequences (Fl-DNA#8 #9 #13). DNA annealing was obtained by mixing equimolar amounts of complementary strands in buffer A, heating to 85 °C for 5 min and slow cooling to 25 °C. DNA-binding experiments were performed at 25 °C in buffer A.
Figure S7. Differential effect of INSTI and INBI compounds on the INPFV-viral DNA interaction.
The formation of IN-DNA complexes was measured by steady-state fluorescence anisotropy using 400 nM INPFV and 4 nM Fl-PFVCAAT (also named Fl-DNA#1) in the presence of 10 mM Mg2+ and […]
In each plot, the starting r value (≈ 0.20) corresponds to the typical value found at saturating concentrations of IN (see Fig. S6).
The INBI compound FZ41, a member of the styrylquinoline family of inhibitors, was used as a control […]
show mean ± SD values from two independent experiments. […]
(In fluorescence polarisation assays a small probe gives low polarisation when free and higher when bound to something large.)

The target in the next assay is T4, S217K IN^PFV-DNA complex (Human spumaretrovirus, UniProt P14350, G968K/S969G).
T4 construct: The pET-IN-PFV plasmid containing the full-length IN gene was used for mutagenesis; His; made in house; host or cells: E. coli BL21-CodonPlus (DE3)-RIPL
Nature of the assay: DTG fluorescence anisotropy binding assay, S217K mutant. The arrangement: species or system prototype foamy virus (PFV). The conditions noted are these: 10 mM Mg2+, DTG 0.6 μM, [IN]=[DNA]=2.4 μM. As for the experimental part:
as §1, §2, §3

For the compound `C[C@@H]1CCO[C@H]2Cn3cc(C(=O)NCc4ccc(F)cc4F)c(=O)c(O)c3C(=O)N12` [DTG, dolutegravir], the IC50 values entry in the assay on IN was “low-nanomolar range”. Moreover, the “ST inhibition by DTG” value is listed as “remained DTG-sensitive” in assay [1] (IN-DNA#1 complexes), “remained DTG-sensitive” in assay [1] (IN-DNA#6 complexes) and “absence of ST inhibition” in assay [1] (IN-DNA#7 complexes). Also, on E221A IN^PFV-DNA complex, the “DTG binding to E221A catalytic mutant” value is “loss of DTG-binding”. Further, the “r value of Fl-DNA (IN-DNA complex) on increasing INSTI concentration” value in assay [2] was “remained constant”. On S217K IN^PFV-DNA complex, the “DTG binding to S217K by DTG anisotropy” value is “DTG-binding defects”.
